In one assay the target is Sas20d1 (Ruminococcus bromii, UniProt Z9RYL2BLZ4). The assay is described as follows: ITC binding to Sas20d1. The following applies: average of three replicates; for Kd (μM) / Kd: 25 °C, 50 mM Hepes pH 7.0, one-site binding model, polysaccharides: based on concentration of binding sites; for N (binding sites): one-site binding model.
For a further assay, the target named is Sas20d1tr (Ruminococcus bromii, UniProt Z9RYL2BLZ4). The assay is described as follows: ITC binding to truncated Sas20d1 lacking C-terminal helices.
For a further assay, the target named is Sas20d2 (Ruminococcus bromii, UniProt A0A2N0UW79). In words: ITC binding to Sas20d2. The following applies: for N (binding sites): one-site binding model.
The target of another assay is Sca5X25-2 (Ruminococcus bromii, UniProt Z9P1N1M2Z2). The assay is described as follows: ITC binding to Sca5X25-2.
The subject of the next assay is Sas20d2 W440A. The assay is described as follows: ITC binding to Sas20d2 W440A mutant. On the set-up: species or system Ruminococcus bromii.
A further assay deals with Sca5X25-2a. The assay is described as follows: ITC binding to Sca5X25-2a. The following applies: 25 °C, one-site binding model, average of three replicates.
The target of the next assay is Sas20d1 Y60A. The assay is described as follows: ITC binding to Sas20d1 Y60A mutant. Further details: species or system Ruminococcus bromii. The following applies: 25 °C, one-site binding model, average of three replicates.
Another assay addresses Sca5X25-2b. The assay is described as follows: ITC binding to Sca5X25-2b. The following applies: 25 °C, one-site binding model, average of three replicates.
A further assay addresses Sas20d1 W72A. In words: ITC binding to Sas20d1 W72A mutant. Further details: species or system Ruminococcus bromii. As to conditions: 25 °C, one-site binding model, average of three replicates.
In a further assay the test system is Sas20d2 W329A. In words: ITC binding to Sas20d2 W329A mutant. On the set-up: species or system Ruminococcus bromii.
A further assay concerns Sas20d2 W375A. In words: ITC binding to Sas20d2 W375A mutant. Further details: species or system Ruminococcus bromii.
Another assay concerns the target Sas20d2 W481A. The assay is described as follows: ITC binding to Sas20d2 W481A mutant. Further details: species or system Ruminococcus bromii. The following applies: 25 °C, one-site binding model, average of three replicates.
[1] abbreviates: 25 °C, 50 mM Hepes pH 7.0, one-site binding model, average of three replicates, polysaccharides: based on concentration of binding sites.
Setting [2] is: Kd (μM), 25 °C, one-site binding model, average of three replicates, asterisk denotes fixed Kd.
[3] abbreviates: 25 °C, one-site binding model, average of three replicates.

Several values for one entry are separate records, joined by “and”; a condition that tells them apart may be missing. Equal entries are not always repeated. Entries after “also recorded” stand apart in the source; their conditions may differ. Where two headings read alike, the source gives them in different places.

Sequence of Sas20d1 (Z9RYL2BLZ4 14-251 limits assumed): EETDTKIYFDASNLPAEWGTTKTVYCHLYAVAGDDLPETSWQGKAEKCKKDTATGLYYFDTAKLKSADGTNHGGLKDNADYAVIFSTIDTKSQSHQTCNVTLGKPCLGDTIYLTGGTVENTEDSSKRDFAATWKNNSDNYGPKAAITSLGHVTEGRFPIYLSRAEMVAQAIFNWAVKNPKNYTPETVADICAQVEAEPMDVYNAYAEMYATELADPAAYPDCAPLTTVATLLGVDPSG
Sequence of Sca5X25-2 (Z9P1N1M2Z2 14-256 limits assumed): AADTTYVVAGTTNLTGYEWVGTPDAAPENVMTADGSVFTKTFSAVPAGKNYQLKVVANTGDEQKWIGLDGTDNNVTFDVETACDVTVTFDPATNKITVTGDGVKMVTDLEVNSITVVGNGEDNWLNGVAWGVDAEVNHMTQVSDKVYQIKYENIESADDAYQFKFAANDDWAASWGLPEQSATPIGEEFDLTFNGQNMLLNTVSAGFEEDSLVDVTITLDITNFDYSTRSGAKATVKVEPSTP
Sequence of Sas20d1tr (Z9RYL2BLZ4 14-173 limits assumed): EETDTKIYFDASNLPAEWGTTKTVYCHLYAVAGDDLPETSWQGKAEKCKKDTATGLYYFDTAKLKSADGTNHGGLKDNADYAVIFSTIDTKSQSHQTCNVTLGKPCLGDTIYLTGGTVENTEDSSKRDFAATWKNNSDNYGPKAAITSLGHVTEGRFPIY
Sequence of Sas20d2 (A0A2N0UW79 entry or part of it): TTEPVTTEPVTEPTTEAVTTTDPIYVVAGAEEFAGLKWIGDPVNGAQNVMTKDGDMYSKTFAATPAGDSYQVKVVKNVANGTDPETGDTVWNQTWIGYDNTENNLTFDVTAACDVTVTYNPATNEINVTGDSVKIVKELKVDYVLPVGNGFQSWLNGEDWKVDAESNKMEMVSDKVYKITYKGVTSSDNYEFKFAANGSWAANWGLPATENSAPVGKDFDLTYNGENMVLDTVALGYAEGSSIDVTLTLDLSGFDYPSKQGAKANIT
Sequence of Sca5X25-2b (Z9P1N1M2Z2 118-256 limits assumed): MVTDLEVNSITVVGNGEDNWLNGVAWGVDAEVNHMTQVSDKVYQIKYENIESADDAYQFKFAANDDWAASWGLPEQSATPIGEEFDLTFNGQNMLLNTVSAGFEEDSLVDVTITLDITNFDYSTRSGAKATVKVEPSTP
Sequence of Sca5X25-2a (Z9P1N1M2Z2 13-117 limits assumed): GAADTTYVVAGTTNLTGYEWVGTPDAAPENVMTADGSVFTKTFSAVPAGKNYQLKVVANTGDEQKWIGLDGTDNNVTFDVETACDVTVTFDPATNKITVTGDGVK
Protocol for Sas20d1tr: (§1) ITC measurements were carried out using a TA Instruments Nano ITC. Proteins were dialyzed into 50 mM Hepes (pH = 7.0), and oligosaccharides were prepared using the dialysis buffer. […] For polysaccharide titrations, the concentration of ligand was adjusted to fit a one-site binding model with n = 1; this sets the concentration of the ligand to the concentration of binding sites for the protein within the polysaccharide, as previously described ([77]). The solution was stirred at 250 rpm, and the resulting heat of reaction was measured. Data were analyzed using the TA Instruments NanoAnalyze software package fitting to a one-site binding model.
Protocol for Sca5X25-2a: as §1
Protocol for Sca5X25-2b: ITC measurements were carried out using a TA Instruments Nano ITC. Proteins were dialyzed into 50 mM Hepes (pH = 7.0), and oligosaccharides were prepared using the dialysis buffer. […] The solution was stirred at 250 rpm, and the resulting heat of reaction was measured. Data were analyzed using the TA Instruments NanoAnalyze software package fitting to a one-site binding model.

The term Kd denotes the equilibrium constant for the complex coming apart. Higher therefore signals weaker binding. For the molecule `OC[C@H]1O[C@@H]2O[C@H]3[C@H](O)[C@@H](O)[C@@H](O[C@H]4[C@H](O)[C@@H](O)[C@@H](O[C@H]5[C@H](O)[C@@H](O)[C@@H](O[C@H]6[C@H](O)[C@@H](O)[C@@H](O[C@H]7[C@H](O)[C@@H](O)[C@@H](O[C@H]1[C@H](O)[C@H]2O)O[C@@H]7CO)O[C@@H]6CO)O[C@@H]5CO)O[C@@H]4CO)O[C@@H]3CO` [α-Cyclodextrin, α-cyclodextrin], the “Kd (μM)” value is given as “failed to bind” at Sas20d1; “Neither Sas20d2 nor Sca5X25-2 bound; also recorded: failed to bind” at Sas20d2 (setting [1]); “Neither Sas20d2 nor Sca5X25-2 bound” on Sca5X25-2 (ITC, 25 °C, one-site binding model, average of three replicates). On Sas20d1tr, the dissociation constant Kd is over 1000 µM.

Take `OC[C@H]1O[C@@H]2O[C@H]3[C@H](O)[C@@H](O)[C@@H](O[C@H]4[C@H](O)[C@@H](O)[C@@H](O[C@H]5[C@H](O)[C@@H](O)[C@@H](O[C@H]6[C@H](O)[C@@H](O)[C@@H](O[C@H]7[C@H](O)[C@@H](O)[C@@H](O[C@H]8[C@H](O)[C@@H](O)[C@@H](O[C@H]1[C@H](O)[C@H]2O)O[C@@H]8CO)O[C@@H]7CO)O[C@@H]6CO)O[C@@H]5CO)O[C@@H]4CO)O[C@@H]3CO` [β-Cyclodextrin, β-cyclodextrin]: the “Kd (μM)” value was “failed to bind” at Sas20d1 and “weak binding” at Sas20d2 (setting [1]). The dissociation constant (Kd) on Sas20d1tr (Kd) was over 1000 µM; at Sas20d1tr (setting [2]), 1050 ± 168 µM; at Sca5X25-2, 346 ± 78.8 µM. Also, the “N (binding sites)” value at Sas20d2 was found to be 0.98 ± 0.09; on Sca5X25-2 (ITC, one-site binding model), 0.958 ± 0.01.

With `OC[C@H]1O[C@H](O[C@H]2[C@H](O)[C@@H](O)[C@@H](O[C@H]3[C@H](O)[C@@H](O)[C@@H](O[C@H]4[C@H](O)[C@@H](O)[C@@H](O[C@H]5[C@H](O)[C@@H](O)[C@@H](O[C@H]6[C@H](O)[C@@H](O)[C@@H](O[C@H]7[C@H](O)[C@@H](O)C(O)O[C@@H]7CO)O[C@@H]6CO)O[C@@H]5CO)O[C@@H]4CO)O[C@@H]3CO)O[C@@H]2CO)[C@H](O)[C@@H](O)[C@@H]1O` (some centres unmarked) [Maltoheptaose, maltoheptaose], the “fold increase in the Kd compared with WT Sas20d2” value in the assay with Sas20d2 W440A, in the assay with Sas20d2 W329A and in the assay with Sas20d2 W375A was about 100 fold each time. The Kd was 90 ± 7.72 µM on Sas20d2 W440A (setting [3]); ≤ 20 µM and 1.5 µM and 1.53 µM at Sas20d1 (Kd (μM)); 8.29 ± 0.51 µM at Sas20d1 Y60A; 90.8 ± 25.7 µM at Sas20d2 W329A (setting [3]); 155 ± 63 µM on Sas20d1tr (setting [2]); 88.1 ± 36 µM on Sas20d2 W375A (setting [3]). This molecule gave a Kd on Sca5X25-2 of 0.21 ± 0.029 µM. For the same molecule, the “Kd (μM)” value at Sca5X25-2a was “failed to bind”; on Sas20d1 Y60A, “binds”; on Sca5X25-2b, “failed to bind”; at Sas20d1 W72A it was “did not bind”; at Sas20d2 W481A it was “eliminated binding”. The “N (binding sites)” value on Sas20d1 came out at 0.89 ± 0.38; at Sas20d1tr (one-site binding model), 1.45 ± 0.27; at Sas20d2 it was 1.15 ± 0.15; at Sca5X25-2 (ITC, one-site binding model), 0.81 ± 0.09. The “fold decrease in binding versus full-length Sas20d1” value on Sas20d1tr was about 100 fold. The “fold lower Kd for maltoheptaose over maltotriose” value on Sas20d2 is given as about 1500 ×.

Turning to `O=[N+]([O-])c1ccc(O[C@H]2O[C@H](CO)[C@@H](O[C@H]3O[C@H](CO)[C@@H](O[C@H]4O[C@H](CO)[C@@H](O[C@H]5O[C@H](CO)[C@@H](O[C@H]6O[C@H](CO)[C@@H](OC7OC(CO)C(O)C(O)C7O)[C@H](O)[C@H]6O)[C@H](O)[C@H]5O)[C@H](O)[C@H]4O)[C@H](O)[C@H]3O)[C@H](O)[C@H]2O)cc1` (stereo partly drawn) [PNP-M6, PNP-α-maltohexaose], at Sas20d1, the equilibrium dissociation constant (Kd) was found to be 0.87 ± 0.48 µM and the “N (binding sites)” value is given as 1.15 ± 0.07.

For `O=[N+]([O-])c1ccc(OC2OC(CO)C(OC3OC(CO)C(OC4OC(CO)C(OC5OC(CO)C(OC6OC(CO)C(OC7OC(CO)C(OC8OC9COC(c%10ccccc%10)OC9C(O)C8O)C(O)C7O)C(O)C6O)C(O)C5O)C(O)C4O)C(O)C3O)C(O)C2O)cc1` (centres unmarked) [B-PNP-M7, benzylidene-blocked para-nitrophenyl maltoheptaoside], at Sas20d1, the Kd was 7.12 ± 1.53 µM and the “N (binding sites)” value was found to be 1.28 ± 0.29.

On to `OC[C@H]1O[C@H](O[C@H]2[C@H](O)[C@@H](O)[C@@H](O[C@H]3[C@H](O)[C@@H](O)C(O)O[C@@H]3CO)O[C@@H]2CO)[C@H](O)[C@@H](O)[C@@H]1O` (some centres unmarked) [Maltotriose, maltotriose], for which the “Kd (μM)” value at Sas20d2 W440A (setting [3]) is on record as “loss of binding”; on Sas20d1 W72A it was “did not bind”; at Sas20d2 W329A (setting [3]), “loss of binding”; on Sas20d2 W375A (setting [3]), “loss of binding”; at Sas20d2 W481A, “eliminated binding”. On Sas20d2, the “N (binding sites)” value was 1.18 ± 0.05.

As for soluble starch, the Kd on Sas20d1 and at Sas20d2 (setting [1]) was at most 20 µM each time.

Source of the values: publication PMC9112005, “Sas20 is a highly flexible starch-binding protein in the Ruminococcus bromii cell-surface amylosome” (The Journal of Biological Chemistry, 2022).
